pIC50: −log10 of the molar value.

One test concerns the target T1, Glycogen phosphorylase, muscle form (Oryctolagus cuniculus, UniProt P00489).
T1 sequence (P00489 whole entry): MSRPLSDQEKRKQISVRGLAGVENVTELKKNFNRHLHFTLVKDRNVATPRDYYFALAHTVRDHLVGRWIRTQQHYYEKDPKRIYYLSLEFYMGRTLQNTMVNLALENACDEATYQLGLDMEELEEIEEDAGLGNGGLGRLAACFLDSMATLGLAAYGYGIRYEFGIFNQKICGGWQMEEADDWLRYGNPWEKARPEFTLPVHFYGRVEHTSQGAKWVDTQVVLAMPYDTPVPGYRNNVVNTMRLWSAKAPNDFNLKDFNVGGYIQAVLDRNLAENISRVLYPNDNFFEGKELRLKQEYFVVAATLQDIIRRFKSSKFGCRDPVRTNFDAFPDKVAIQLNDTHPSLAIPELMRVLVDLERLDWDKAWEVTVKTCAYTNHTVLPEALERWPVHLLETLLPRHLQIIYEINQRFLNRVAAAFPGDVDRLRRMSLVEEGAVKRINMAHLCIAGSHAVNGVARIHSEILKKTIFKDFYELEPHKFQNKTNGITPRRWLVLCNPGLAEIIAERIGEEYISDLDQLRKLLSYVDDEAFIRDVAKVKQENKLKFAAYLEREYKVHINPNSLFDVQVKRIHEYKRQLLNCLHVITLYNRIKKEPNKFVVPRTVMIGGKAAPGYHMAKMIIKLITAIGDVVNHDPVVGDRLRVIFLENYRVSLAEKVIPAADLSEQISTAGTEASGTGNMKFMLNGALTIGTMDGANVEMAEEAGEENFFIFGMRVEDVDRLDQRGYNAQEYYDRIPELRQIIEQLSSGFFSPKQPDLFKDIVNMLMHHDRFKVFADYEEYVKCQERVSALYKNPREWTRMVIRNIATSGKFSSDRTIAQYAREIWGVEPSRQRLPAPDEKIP
Kind of test: Binding affinity to rabbit muscular GPa by NMR binding assay.
One may read the pIC50 as the IC50 on a negative log10 scale, so that one unit is a factor of ten. The molecule `O=C(CN1CCN(c2ccccc2)CC1)Nc1nccs1` gave a negative-log IC50 (pIC50) of 4.01. On the same count and under the same terms, with `Cc1cc(F)c(Sc2nccn2C)cc1C(=O)Nc1cccc(C#N)c1` the figure was 5.00; with `Cc1cc(F)c(Sc2nccn2C)cc1C(=O)Nc1cccc(N)c1`, 5.57.

A further test concerns the target T2, Glycogen phosphorylase, liver form (Homo sapiens, UniProt P06737).
T2 sequence (P06737 whole entry): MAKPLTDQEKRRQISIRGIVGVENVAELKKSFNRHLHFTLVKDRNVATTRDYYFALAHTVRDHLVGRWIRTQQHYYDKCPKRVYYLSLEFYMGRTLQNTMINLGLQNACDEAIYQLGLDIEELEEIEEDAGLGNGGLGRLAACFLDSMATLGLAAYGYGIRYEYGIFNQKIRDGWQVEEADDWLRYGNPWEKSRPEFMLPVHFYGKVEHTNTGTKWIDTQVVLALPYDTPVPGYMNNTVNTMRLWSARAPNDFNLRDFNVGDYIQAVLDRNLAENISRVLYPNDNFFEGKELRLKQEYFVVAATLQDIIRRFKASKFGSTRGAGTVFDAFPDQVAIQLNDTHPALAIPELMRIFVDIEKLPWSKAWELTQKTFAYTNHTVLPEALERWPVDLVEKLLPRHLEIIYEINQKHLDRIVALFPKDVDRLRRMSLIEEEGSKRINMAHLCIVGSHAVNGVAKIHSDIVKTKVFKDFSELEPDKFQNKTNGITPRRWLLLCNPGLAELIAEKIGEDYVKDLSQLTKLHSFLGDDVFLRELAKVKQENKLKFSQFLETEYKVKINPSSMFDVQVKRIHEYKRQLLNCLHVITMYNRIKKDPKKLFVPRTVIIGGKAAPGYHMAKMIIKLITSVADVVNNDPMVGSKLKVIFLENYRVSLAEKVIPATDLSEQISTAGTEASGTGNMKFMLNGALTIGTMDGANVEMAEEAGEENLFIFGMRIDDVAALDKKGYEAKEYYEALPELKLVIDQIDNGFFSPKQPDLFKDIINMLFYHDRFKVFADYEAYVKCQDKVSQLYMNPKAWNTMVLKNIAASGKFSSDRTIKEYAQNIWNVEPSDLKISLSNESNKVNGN
The test is described as follows: Binding affinity to human liver GPa by NMR binding assay.
As for `COCCNC(=O)c1c[nH]c2ccc(Cl)cc12`, the negative-log IC50 (pIC50) is 4.90.

With `Nc1ccccc1C(=O)Nc1ccccc1Oc1ccc(C(=O)O)c(C(=O)O)c1`, the pIC50 was 5.89.

The target in a further test is T1, Glycogen phosphorylase, muscle form.
Description: Binding affinity to rabbit muscular GPb by NMR binding assay
With `O=C1NCC(O)NC12O[C@H](CO)[C@@H](O)[C@H](O)[C@H]2O` (stereo not given in full), the pIC50 is 4.22. Same read-out and setting: with `O=C(NC(=O)c1cc2ccccc2[nH]1)N[C@@H]1O[C@H](CO)[C@@H](O)[C@H](O)[C@H]1O` the figure was 5.40. On the same count and under the same terms, with `O=C(O)c1ccccc1-n1cc(C(=O)O)c(=O)c2cc(Cc3c(F)cc(F)cc3Cl)c(Cl)cc21` the figure was 7.62.

The molecule `Cc1cn([C@@H]2O[C@H](CO)[C@@H](O)[C@H](O)[C@H]2O)c(=O)[nH]c1=O` had a pIC50 of 5.18. This pIC50 is 2.44 log units lower than that of the molecule before. With `Nc1ccccc1C(=O)Nc1ccccc1Oc1ccc(C(=O)O)c(C(=O)O)c1`, the pIC50 was 6.05.

Values taken from ChEMBL document CHEMBL2029245, “Binding evaluation of fragment-based scaffolds for probing allosteric enzymes” (J Med Chem, 2012).
